A value given as a limit tells only on which side of the number the result lay.

The experiment concerns 3D7 P. falciparum strain. The experiment can be described thus: P. falciparum 3D7 parasite proliferation assay (SYBR Green). The following applies: Plasmodium falciparum, Erythrocyte; 3D7 P. falciparum infected human erythrocytes, 72 hours, SYBR Green fluorescence; read-out: Pf3D7 Activity. It counts as cell-based. The protocol:
The following assay illustrates the invention without in any way limiting the scope of the invention. This parasite proliferation assay measures the increase in parasite DNA content using a DNA intercalating dye, SYBR Green®. 3D7 P. falciparum strain is grown in complete culturing media until parasitemia reaches 3% to 8% with O+ human erythrocytes. 20 μl of screening media is dispensed into 384 well assay plates. 50 nl of compounds of the invention (in DMSO), including antimalarial controls (mefloquine, pyrimethamine and artemisinin), are then transferred into the assay plates, as well as DMSO alone to serve as a negative control for inhibition. Then 30 μl of a suspension of a 3D7 P. falciparum infected erythrocytes in screening media is dispensed into the assay plates such that the final hematocrit is 2.5% with a final parasitemia of 0.3%. The plates are placed in a 37° C. incubator for 72 hours in a low oxygen environment containing 93% N2, 4% CO2, and 3% O2 gas mixture. 10 μl of lysis buffer (saponin, triton-X, EDTA) containing a 10× solution of SYBR Green […] in RPMI media is dispensed into the plates. The plates are lidded and kept at room temperature overnight for the lysis of the infected red blood cells. The fluorescence intensity is measured (excitation […], emission 530 nm) using the Envision™ system (Perkin Elmer). The percentage inhibition of 50%, EC50, is calculated for each compound.
Turning to `CC(C)(N)CNC(=O)c1cncc(-c2cc3cc(C(F)(F)F)ccc3[nH]2)n1` [Example 18, N-(2-amino-2-methylpropyl)-6-(5-(trifluoromethyl)-1H-indol-2-yl)pyrazine-2-carboxamide], the EC50 lay within 10 to 100 nM.
The result for `CC(C)(N)CNC(=O)c1cncc(-c2cc3sc(C(N)=O)cc3[nH]2)n1` [Example 108, 5-(6-((2-amino-2-methylpropyl)carbamoyl)pyrazin-2-yl)-4H-thieno[3,2-b]pyrrole-2-carboxamide] reads greater than 100 nM; that for `Cc1c(-c2cncc(C(=O)NCC(C)(C)N)n2)[nH]c2ccc(CN)cc12` [Example 71, N-(2-amino-2-methylpropyl)-6-(5-(aminomethyl)-3-methyl-1H-indol-2-yl)pyrazine-2-carboxamide], greater than 100 nM; that for `CC(C)(N)CNC(=O)c1cncc(-c2cc3ccnc(Cl)c3[nH]2)n1` [Example 42, N-(2-amino-2-methylpropyl)-6-(7-chloro-1H-pyrrolo[2,3-c]pyridin-2-yl)pyrazine-2-carboxamide], greater than 100 nM.
`COc1cc2[nH]c(-c3cncc(C(=O)NCC(C)(C)N)n3)cc2cc1F` [Example 36, N-(2-amino-2-methylpropyl)-6-(5-fluoro-6-methoxy-1H-indol-2-yl)pyrazine-2-carboxamide]: the EC50 is greater than 100 nM.
For the molecule `CCOC(=O)c1cc2[nH]c(-c3cncc(C(=O)NCC(C)(C)N)n3)cc2s1` [Example 53, Ethyl 5-(6-((2-amino-2-methylpropyl)carbamoyl)pyrazin-2-yl)-4H-thieno[3,2-b]pyrrole-2-carboxylate], the EC50 is 10 to 100 nM.
With `Cc1c(-c2cncc(C(=O)NC3CCC(N)C3)n2)[nH]c2ccccc12` (stereo not drawn) [Example 92, N-(3-aminocyclopentyl)-6-(3-methyl-1H-indol-2-yl)pyrazine-2-carboxamide], the EC50 is greater than 100 nM.
On to `CC(C)(N)CNC(=O)c1cncc(-c2cc3cc(F)c(O)cc3[nH]2)n1` [Example 110, N-(2-amino-2-methylpropyl)-6-(5-fluoro-6-hydroxy-1H-indol-2-yl)pyrazine-2-carboxamide], for which the EC50 is greater than 100 nM.
`Cc1c(-c2cncc(C(=O)N(C)CC(C)(C)N)n2)[nH]c2ccc(OC(F)(F)F)cc12` [Example 62, N-(2-amino-2-methylpropyl)-N-methyl-6-(3-methyl-5-(trifluoromethoxy)-1H-indol-2-yl)pyrazine-2-carboxamide]: the EC50 was in the range of 10 to 100 nM.
As for `CC(C)(N)CNC(=O)c1cncc(-c2cc3ccccc3[nH]2)n1` [Example 35, N-(2-amino-2-methylpropyl)-6-(1H-indol-2-yl)pyrazine-2-carboxamide], the EC50 is greater than 100 nM.
For the molecule `Cc1c(-c2cncc(C(=O)NC(C)(C)CN)n2)[nH]c2ccccc12` [Example 88, N-(1-amino-2-methylpropan-2-yl)-6-(3-methyl-1H-indol-2-yl)pyrazine-2-carboxamide], the EC50 was 10 to 100 nM.
The result for `CC(C)(N)CNC(=O)c1cncc(-c2cc3cc(F)c(Cl)nc3[nH]2)n1` [Example 33, N-(2-amino-2-methylpropyl)-6-(6-chloro-5-fluoro-1H-pyrrolo[2,3-b]pyridin-2-yl)pyrazine-2-carboxamide] reads greater than 100 nM; that for `Cc1c(-c2cncc(C(=O)NCCCN)n2)[nH]c2ccc(OC(F)(F)F)cc12` [Example 63, N-(3-aminopropyl)-6-(3-methyl-5-(trifluoromethoxy)-1H-indol-2-yl)pyrazine-2-carboxamide], 10 to 100 nM; that for `Cc1c(-c2cncc(C(=O)NCC(C)(C)N)n2)[nH]c2c1C(=O)CC(C)(C)C2` [Example 56, N-(2-amino-2-methylpropyl)-6-(3,6,6-trimethyl-4-oxo-4,5,6,7-tetrahydro-1H-indol-2-yl)pyrazine-2-carboxamide], greater than 100 nM.
Consider `CCc1c(-c2cncc(C(=O)NCC(C)(C)N)n2)[nH]c2ccccc12` [Example 50, N-(2-amino-2-methylpropyl)-6-(3-ethyl-1H-indol-2-yl)pyrazine-2-carboxamide], for which the EC50 was 10 to 100 nM.
Regarding `Cc1c(-c2cncc(C(=O)NCCC(C)(C)N)n2)[nH]c2ccccc12` [Example 85, N-(3-amino-3-methylbutyl)-6-(3-methyl-1H-indol-2-yl)pyrazine-2-carboxamide], the EC50 fell in the range of 10 to 100 nM.
For `CC(C)(N)CNC(=O)c1cncc(-c2cc3ccc(F)cc3[nH]2)n1` [Example 21, N-(2-amino-2-methylpropyl)-6-(6-fluoro-1H-indol-2-yl)pyrazine-2-carboxamide], the EC50 was 10 to 100 nM.
Take `CC(C)(N)CNC(=O)c1cncc(-c2cc3cccc(F)c3[nH]2)n1` [Example 25, N-(2-amino-2-methylpropyl)-6-(7-fluoro-1H-indol-2-yl)pyrazine-2-carboxamide]: the EC50 lay within 10 to 100 nM.
In the case of `Cc1c(-c2cncc(C(=O)NCC(N)CO)n2)[nH]c2ccccc12` (stereo not drawn) [Example 94, N-(2-amino-3-hydroxypropyl)-6-(3-methyl-1H-indol-2-yl)pyrazine-2-carboxamide], the EC50 is greater than 100 nM.
On to `CC(C)(N)CNC(=O)c1cncc(-c2cc3cc(F)c(Cl)cc3[nH]2)n1` [Example 14, N-(2-amino-2-methylpropyl)-6-(6-chloro-5-fluoro-1H-indol-2-yl)pyrazine-2-carboxamide], for which the EC50 was 10 to 100 nM.
With `CC(C)(N)CNC(=O)c1cncc(-c2[nH]c3ccccc3c2C(F)(F)F)n1` [Example 54, N-(2-amino-2-methylpropyl)-6-(3-(trifluoromethyl)-1H-indol-2-yl)pyrazine-2-carboxamide] the figure was greater than 100 nM; with `CC(C)(N)CNC(=O)c1cncc(-c2cc3cc(S(F)(F)(F)(F)F)ccc3[nH]2)n1` [Example 46, N-(2-amino-2-methylpropyl)-6-(5-(pentafluoro-λ^6-sulfaneyl)-1H-indol-2-yl)pyrazine-2-carboxamide], 10 to 100 nM.
With `Cc1c(-c2cncc(C(=O)NCC(C)(C)N)n2)[nH]c2c1CCCC2` [Example 51, N-(2-amino-2-methylpropyl)-6-(3-methyl-4,5,6,7-tetrahydro-1H-indol-2-yl)pyrazine-2-carboxamide] the figure was 10 to 100 nM.
With `Cc1ccc2cc(-c3cncc(C(=O)NCC(C)(C)N)n3)[nH]c2c1` [Example 23, N-(2-amino-2-methylpropyl)-6-(6-methyl-1H-indol-2-yl)pyrazine-2-carboxamide], the EC50 was in the range of 10 to 100 nM.
For `CC(C)(N)CNC(=O)c1cncc(-c2cc3cccc(Cl)c3[nH]2)n1` [Example 28, N-(2-amino-2-methylpropyl)-6-(7-chloro-1H-indol-2-yl)pyrazine-2-carboxamide], the EC50 was 10 to 100 nM.
In the case of `Cc1c(-c2cncc(C(=O)NCC(C)(C)N3CCOCC3)n2)[nH]c2ccccc12` [Example 96, 6-(3-Methyl-1H-indol-2-yl)-N-(2-methyl-2-morpholinopropyl)pyrazine-2-carboxamide], the EC50 is greater than 100 nM.
`Cc1c(-c2cncc(C(=O)NCC3(N)COC3)n2)[nH]c2ccccc12` [Example 95, N-((3-aminooxetan-3-yl)methyl)-6-(3-methyl-1H-indol-2-yl)pyrazine-2-carboxamide]: the EC50 is greater than 100 nM.
The result for `Cc1c(-c2cncc(C(=O)NCC(N)C3CC3)n2)[nH]c2ccccc12` (stereo not drawn) [Example 102] reads 10 to 100 nM; that for `CC(C)(N)CNC(=O)c1cncc(-c2[nH]c3ccccc3c2C#N)n1` [Example 57, N-(2-amino-2-methylpropyl)-6-(3-cyano-1H-indol-2-yl)pyrazine-2-carboxamide], greater than 100 nM.
As for `CC(C)(N)CNC(=O)c1cncc(-c2cc3cc(Cl)c(F)cc3[nH]2)n1` [Example 17, N-(2-amino-2-methylpropyl)-6-(5-chloro-6-fluoro-1H-indol-2-yl)pyrazine-2-carboxamide], the EC50 is 10 to 100 nM.
In the case of `Cc1c(-c2cncc(C(=O)NCC(C)(C)N)n2)[nH]c2ccc(Br)cc12` [Example 74, N-(2-Amino-2-methylpropyl)-6-(5-bromo-3-methyl-1H-indol-2-yl)pyrazine-2-carboxamide], the EC50 is less than 10 nM.
For the molecule `CC(C)c1c(-c2cncc(C(=O)NCC(C)(C)N)n2)[nH]c2ccccc12` [Example 52, N-(2-amino-2-methylpropyl)-6-(3-isopropyl-1H-indol-2-yl)pyrazine-2-carboxamide], the EC50 lay within 10 to 100 nM.
For `Cc1c(-c2cncc(C(=O)N[C@H]3COC[C@H]3N)n2)[nH]c2ccccc12` (racemic) [Example 99, (rac)-N-((3r,4s)-4-aminotetrahydrofuran-3-yl)-6-(3-methyl-1H-indol-2-yl)pyrazine-2-carboxamide], the EC50 was greater than 100 nM.
As to `CC(C)(N)CNC(=O)c1cncc(-c2cc3cnc(Cl)cc3[nH]2)n1` [Example 40, N-(2-amino-2-methylpropyl)-6-(6-chloro-1H-pyrrolo[3,2-c]pyridin-2-yl)pyrazine-2-carboxamide], the EC50 was greater than 100 nM.
With `CC(C)(N)CNC(=O)c1cncc(-c2cc3cc(OCc4ccccc4)ccc3[nH]2)n1` [Example 22, N-(2-amino-2-methylpropyl)-6-(5-(benzyloxy)-1H-indol-2-yl)pyrazine-2-carboxamide], the EC50 was in the range of 10 to 100 nM.
With `Cc1c(-c2cncc(C(=O)NCC(C)(C)N)n2)[nH]c2ccc(OC(F)F)cc12` [Example 70, N-(2-amino-2-methylpropyl)-6-(5-(difluoromethoxy)-3-methyl-1H-indol-2-yl)pyrazine-2-carboxamide], the EC50 was in the range of 10 to 100 nM.

Source of the values: patent publication US20250197376A1, “PYRAZINE AMIDE DERIVATIVES” (Novartis AG, priority 2022, published 2025).
